Patent US8591908B2, “Immunogen for preparation of therapeutic vaccines or drugs for treatment of hepatitis B and the producing method and use thereof” (Institute of Immunology, PLA, priority 2002, dated 2013)
Ends that are not written are not given here. * marks the point of attachment. Palmitoyl = CCCCCCCCCCCCCCCC(=O)*

Legend:
[1] = Solubility in different solution systems; assay type: physicochemical
Text: (§1) εPA44 was soluble and stable in DMSO, but poorly soluble and stable in other solutions (see Table 5). Thus, DMSO was used as the mobile phase for SEC.

[2] = system: Balb/c mice; assay: Th1 activation, serum Th1/Th2 cytokines by ELISA; assay type: in vivo; conditions: serum 3 weeks after immunization
Experimental: Balb/c mice (both male and female) of 2-3 Months old were divided into 8 groups, and were immunized with εPA44 at both postpede palmas once a week for three times at different doses: 0.001 nmol, 0.01 nmol, 0.1 nmol, 0.5 nmol, 1 nmol, 10 nmol, 20 nmol, and 40 nmol respectively. 3 weeks after immunization, the mice were bled by removing their eyeballs and serums were collected. Th1/Th2 cytokines were tested by ELISA.

[3] = system: HBV DNA in HBV transgenic mice; assay: HBV transgenic mice: HBV DNA in serum, quantitative PCR; assay type: in vivo; conditions: 10th, 20th, 30th day after three immunizations, 10-1000 U/mouse
Experimental: (§2) The levels of cytokines such as IFN-γ, IL-4, etc. in supernatant were measured by the ELISA method, and the activity of the test drug (CH3(CH2)14COKSSQYIKANSKFIGITEAAASIVSPFIPLLGGGDPRVRGLYFPA) (SEQ ID NO:5) for inducing the differentiation of T cells into Th1/Th2 type was analyzed. […] The expression frequency of IFN-γ secreting cells in peripheral blood lymphocytes was measured by the ELI-SPOT method in said supernatant. […] On the 10th, 20th and 30th day after the end of the three immunizations, bloods were removed, serum isolated, and the contents of HBsAg and HBV-DNA in the serum were separately measured by the ELISA method and quantitative PCR method.

[4] = pI stated in the formulation description; assay type: physicochemical; conditions: stated without method in formulation example 39
[5] = system: peripheral blood mononuclear lymphocytes of HLA-A2+ healthy person; assay: FIG. 2: induction of lymphocyte proliferation, 3H-TdR; assay type: cell-based, human
Text: FIG. 2 indicated the effect of inducing the proliferation of lymphocytes.

[6] = Stability in different solution systems (RP-HPLC); assay type: physicochemical
Text: as §1

[7] = Overall functional screening of tri-epitope molecules
Text: The designed immunogens are synthesized by chemical synthesis methods. Firstly, the most probable structures according to the computer alignment and in theory are synthesized, and then functionally screened in vitro. The screening in vitro comprises: inducing the Th1 activation of peripheral blood mononuclear cells, inducing the HBV-specific CTL, inhibiting HBsAg and HBeAg on HepG2.2.1.5 cells with polypeptide antigen-specific CTL, etc. The designed structures are optimized, improved and synthesized in the next cycle bused on the results of functional tests in vitro. The structures selected out in the in vitro tests are further screened in in vivo tests, the screening comprising: inducing the Th1 activation in Balb/C mice, inhibiting virus replication in HBV transgenic mice, conducting acute toxicity tests in mice, etc. […] Among tri-epitope molecules of different epitope combinations, εPA44 achieves the best effect (see Table 4). The in vivo and in vitro tests indicate that the convalent modification by palmitic acid gives better effects among various chemical modifications.

[8] = system: human peripheral blood mononuclear cells (PBMCs); assay: Proliferation of human PBMCs from normal persons, 3H-TdR; assay type: cell-based; conditions: 0.1 μg, 1 μg and 10 μg/ml with IL-2
Experimental: Anticoagulant peripheral blood was collected from normal persons under sterile conditions, PBMCs were isolated by conventional Ficoll-Hypaque density gradient centrifugation and were cultured in RPMI1640 culture media (containing 10% calf serum, 100 u/ml penicillin-streptomycin, L-glutamine) in vitro on 24-well culture plates at the cell concentration of 10^6/ml. Blank control group, test group and Pre-S(2) control group were included, to which IL-2 (30 IU/ml) and test drug (0.1 μg/ml, 1 μg/ml, 10 μg/ml) were added. After the cells were cultured for 6 days, IL-2 and the test drug were added at the same dose to stimulate the cells again, and then 3H-TdR (1 uCi/ml) was added. After the cells were further cultured for 18 hours, they were collected and tested by liquid scintillation.

[9] = system: HBV-DNA transgenic mice; assay: HBV transgenic mice: IFN-γ secreting cells, ELI-SPOT; assay type: in vivo; conditions: 30th day after end of immunization
Experimental: as §2
The expression frequency of IFN-γ secreting cells in peripheral blood lymphocytes was measured by the ELI-SPOT method.

[10] = system: Balb/c mice; assay: Neutralizing antibodies, double-antibody-sandwich and competitive inhibition test; assay type: in vivo
Experimental: Balb/c mice of 2-3 Months old (both male and female) were divided into 8 groups […], and were immunized with εPA44 at both postpede palmas once a week for three times at different doses: 0.001 nmol, 0.01 nmol, 0.1 nmol, 0.5 nmol, 1 nmol, 10 nmol, 20 nmol respectively, 3 weeks after the immunization, the mice were bled by removing their eyeballs and serums were collected. Antibodies were tested by the double-antibody-sandwich method. The specificity was tested by antibody competitive inhibition test using of the 10 world wide available monoclonal antibodies.

[11] = system: hepatitis B surface antigen (HBsAg) in HBV transgenic mice; assay: HBV transgenic mice: HBsAg in serum, ELISA; assay type: in vivo; conditions: 10th, 20th, 30th day after three immunizations, 10-1000 U/mouse
Experimental: as §2

[12] = system: T2 cells, E6 cells, and HepG2.2.15 cells; assay: HBV-specific effective CTL from hepatitis patients' PBMC, cytotoxicity; assay type: cell-based, human
Experimental: Acute and chronic hepatitis blank control groups, acute hepatitis+test drug group and chronic hepatitis+test drug group were included. The PBMC's from the patients were cultured in vitro and stimulated repetitively to generate antigen-specific effective CTL cells and amplified their number. Then they were used to cytotoxically kill peptide antigen pre-coated T2 cells, E6 cells, and HepG2.2.15 cells.

[13] = system: HBV-DNA transgenic mice; assay: HBV transgenic mice: cytokines of spleen lymphocytes, ELISA (Th1/Th2); assay type: in vivo; conditions: 10, 100, 1000 U/mouse s.c., day 30; spleen lymphocytes restimulated with 10 ng/ml for 3 days
Experimental: as §2
Then supernatants were collected and the secretion levels of cytokines such as TNF-α, IFN-γ, IL-4, etc. in supernatants were measured by ELISA, and the activity of the test drug for inducing the conversion of Th1/Th2 type from T cells in subjects was analyzed.

[14] = 50% Ethanol-10 mmol/L phosphoric acid

Substance: K(Palmitoyl)SSQYIKANSKFIGITEAAAFLPSDFFPSVGGGDPRVRGLYFPA-OH [SEQ ID NO:1, CH3(CH2)14COKSSQYIKANSKFIGITEAAAFLPSDFFPSVGGGDPRVRGLYFPA]
- solubility ([1]; 0.1 mol/L PB (pH 6.8)): 10 µg/mL
- solubility ([1]; 2% Tween80-0.1 mol/L PB(pH 6.8)): 80 µg/mL
- solubility ([1]; 50% Acetonitrile-0.1% TFA): 1670 µg/mL
- solubility ([1]; 50% DMSO): 2530 µg/mL
- solubility ([1]; 50% Ethanol-10 mmol/L HCl): 2480 µg/mL
- solubility [1, 14]: 2430 µg/mL
- solubility ([1]; 50% Methanol-0.1% TFA): 1540 µg/mL
- solubility ([1]; DMSO): 11700 µg/mL
- dose inducing the generation of IFN-γ and IL-2 [2]: 0.01 nmol
- HBV-DNA in the serum (copy number, replication level) [3]: obviously decreased in a manner of dose-dependence and time-dependence
- pI [4]: 8.1
- minimal effective dose ([5]; lymphocyte proliferation): 0.1 ng
- range with dose-effect dependence ([5]; lymphocyte proliferation): 0.1 to 10 ng
- induction of the proliferation of lymphocytes ([5]; with IL-2, γ-count after 3H-TdR): significantly induce the proliferation of lymphocytes
- Stability ([6]; 50% Acetonitrile-0.1% TFA): Unstable
- Stability ([6]; 50% Ethanol-10 mmol/L HCl): Unstable
- Stability [6, 14]: Unstable
- Stability ([6]; DMSO): Stable*
- effect among tri-epitope molecules of different epitope combinations [7]: best effect
- proliferation of human PBMCs [8]: stimulated the proliferation of human PBMCs in a manner of dose dependence
- expression frequency of IFN-γ secreting cells in peripheral blood lymphocytes ([9]; 10-1000 U/mouse): increased with the increase of the immunization dose
- highest expression frequency of IFN-γ secreting cells ([9]; IFN-α2b at 15000 U/mouse): 3660 IFN-γ secreting cells/10^6 PBMC
- specificity of induced antibodies ([10]; antibody competitive inhibition test with monoclonal antibodies): HBV neutralizing antibodies
- dose inducing the generation of antibody ([10]; serum 3 weeks after immunization): 0.01 nmol
- HBsAg in the serum [11]: decreased in a manner of dose-dependence and time-dependence
- target cell-specific lysis rate ([12]; PBMCs from acute hepatitis patient in convalescent phase): up to 68.6%
- target cell-specific lysis rate ([12]; PBMCs from chronic hepatitis patient): up to 42.6%
- specific killing of target cells ([12]; PBMCs of hepatitis patients): specifically kill aforesaid three target cell lines
- IL-4 secretion [13]: no obvious dose-effect dependence relation
- secretion of IFN-γ [13]: stronger
